Values of other authors in patent US20100075916A1, “SUBSTITUTED QUINAZOLINE INHIBITORS OF GROWTH FACTOR RECEPTOR TYROSINE KINASES” (AUSPEX PHARMACEUTICALS, INC., priority 2008, published 2010).

What was measured:
[1] = humans
[2] = vandetanib administration

elimination halflife [1]: approximately 120 hours
volume of distribution [1]: large volume of distribution
lag time before the drug is detectable in plasma ([1]; after oral administration): 0.801 h
Ka (absorption) ([1]; oral administration): 0.476 h⁻¹
Compound: COc1cc2c(Nc3ccc(Br)cc3F)ncnc2cc1OCC1CCN(C)CC1 [Vandetanib, N-(4-bromo-2-fluoro-phenyl)-6-methoxy-7-[(1-methyl-4-piperidyl)methoxy]quinazolin-4-amine]
common side effects [2]: rash, diarrhea, QTc prolongation, hypertension, and neutropenia
